US11590167B2, “Methods and compositions for use of therapeutic T cells in combination with kinase inhibitors” (Juno Therapeutics, Inc., priority 2016, dated 2023)

Columns and labels:
[1] = test system: CAR+ T cells harvested from bone marrow; assay: Ex vivo immunophenotyping (t-SNE) of CAR+ T cells harvested from bone marrow; assay type: in vivo, NSG mice; details: day 12 post CAR T transfer
Experimental: NSG mice described in Example 2 were intravenously injected on day 0 with 5×10^5 Nalm-6 cells expressing firefly luciferase. […] A bridging experiment confirmed that administration of ibrutinib by drinking water was equivalent to oral gavage administration (data not shown). To permit assessment of the effect of a combination therapy with the inhibitor, a suboptimal dose of anti-CD19 CAR T cells was i.v. injected into the mice at 5×10^5/mouse at day 5. As a control, mice were administered the vehicle control without administration of the CAR-T cells or inhibitor.
Cells were assessed for surface markers CD44, CD45RA, CD62L, CD154, CXCR3, CXCR4, PD-1 by flow cytometry and T-distributed stochastic neighbor embedding (t-SNE) high dimensional analysis was performed using FlowJo software. […] Using multivariate t-SNE FACS analysis based on pooled analysis from three mice per group, 4 distinct population clusters were identified (FIG. 8B). FACs histograms showing the individual expression profiles of CD4, CD8, CD62L, CD45RA, CD44 and CXCR3 from the 4 gated t-SNE in FIG. 8A overlaid on the expression of the total population (shaded) is shown in FIG. 8C. […] Statistically significant differences are indicated as […] (*), P<0.01 (**), P<0.001 (***), P<0.0001 (****).

[2] = test system: Nalm-6 cells expressing firefly luciferase; assay: Nalm-6 disseminated tumor xenograft mouse model, inhibitor in drinking water with suboptimal anti-CD19 CAR T dose; assay type: in vivo, NSG mice
Experimental: To permit assessment of the effect of a combination therapy with the inhibitor, a suboptimal dose of anti-CD19 CAR T cells was i.v. injected into the mice at 5×10^5/mouse at day 5. As a control, mice were administered the vehicle control without administration of the CAR-T cells or inhibitor.
Following treatment as described above, the tumor growth and percent survival of treated mice was determined.

[3] = test system: anti-CD19 CAR T cells; assay: Cytolytic activity of anti-CD19 CAR T cells co-cultured with K562-CD19 target cells (IncuCyte); assay type: cell-based, human; details: E:T 2.5:1, four days, three healthy donors; ibrutinib 0.5-5000 nM; compound of Formula (II) 50 to 5000 nM
From the text: To generate CAR-expressing T cells, T cells were isolated by immunoaffinity-based enrichment from three healthy human donor subjects, and cells from each donor were activated and transduced with a viral vector encoding an anti-CD19 CAR. The CAR contained an anti-CD19 scFv, an Ig-derived spacer, a human CD28-derived transmembrane domain, a human 4-1BB-derived intracellular signaling domain and a human CD3 zeta-derived signaling domain. The nucleic acid construct encoding the CAR also included a truncated EGFR (tEGFR) sequence for use as a transduction marker, separated from the CAR sequence by a self-cleaving T2A sequence.
CAR-expressing CD4+ and CD8+ cells were mixed 1:1 for each donor, individually, and the pooled cells for each donor assessed in vitro under various conditions.
CAR T cells generated as described above were plated in triplicate on Poly-D-Lysine plates and then co-cultured with ibrutinib-resistant, CD19-expressing target cells (K562 cells transduced to express CD19, K562-CD19) at an effector to target (E:T) ratio of 2.5:1. The targets cells were labeled with NucLight Red (NLR) to permit tracking of target cells by microscopy. […] Cytolytic activity was assessed by measuring the loss of viable target cells over a period of four days, as determined by red fluorescent signal (using the IncuCyte® Live Cell Analysis System, Essen Bioscience).

[4] = test system: anti-CD19 CAR T cells; assay: TH1 phenotype of anti-CD19 CAR T cells in serial restimulation assay (flow cytometry); assay type: cell-based, human; details: 18-day serial stimulation, three donors; 500 nM ibrutinib (P<0.01); compound of Formula (II) treatment
Experimental: A serial restimulation assay was performed as described above and cells were harvested at various times and analyzed by flow cytometry to assess percentage of TH1-phenotype (assessed as CD4+CXCR3+CRTH2-) T cells or TH2-phenotype (assessed as CD4+CXCR3-CRTH2+).

CC#CC(=O)N1CCC[C@H]1c1nc(-c2ccc(C(=O)Nc3ccccn3)cc2)c2c(N)nccn12 [compound of Formula (II)]
population 2 (CD8+CD44hiCXCR3hiCD45RAloCD62Lhi) and population 4 (CD4+CD44hiCXCR3intCD45RAhiCD62Lhi) compared to control mice [1]: An increase
population 2 as share of CAR-T cells ([1]; pooled from three mice): 29.2%
population 4 as share of CAR-T cells ([1]; pooled from three mice): 8.4%
tumor growth compared with CAR T administered with vehicle alone ([2]; with CAR T, drinking water 25 mg/kg/day): significantly (P<0.001) decreased tumor growth
median survival compared to suboptimal anti-CD19 CAR T cell dose+vehicle ([2]; with CAR-T cells, drinking water 25 mg/kg/day from day 4, p<0.001): increased median survival
cytolytic function of anti-CD19 CAR T cells against K562-CD19 target cells, normalized to untreated control [3]: no negative impact on cytolytic function
percentage of TH1 cells [4]: no significant effects were observed
